Reference: ChEMBL document CHEMBL1201862, “PubChem BioAssay data set” (2004)
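Five compound concentrations were applied to cells in 96-well plates for 48 hours; endpoints were derived by simple linear interpolation of the resulting dose-response curve. Here, GI50 denotes the concentration required for 50% inhibition of growth.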 The source made the active and inactive calls. Cut-off read from the data, not from the text of the source: active = GI50 up to about 1.1 µM and inactive = higher.

Tests used:
Experiment in all cases: inhibition of tumour cell growth, NCI panel, 48 h
[1] = tested on: 786-0
[2] = tested on: A498
[3] = tested on: A549
[4] = tested on: ACHN
[5] = tested on: BT-549
[6] = tested on: CAKI-1
[7] = tested on: CCRF-CEM
[8] = tested on: COLO 205
[9] = tested on: DU-145
[10] = tested on: EKVX
[11] = tested on: HCC 2998
[12] = tested on: HCT-116
[13] = tested on: HCT-15
[14] = tested on: HL-60
[15] = tested on: HOP-92
[16] = tested on: HT-29
[17] = tested on: Hs-578T
[18] = tested on: IGROV-1
[19] = tested on: K562
[20] = tested on: KM12
[21] = tested on: LOX IMVI
[22] = tested on: M14
[23] = tested on: MCF7
[24] = tested on: MDA-MB-231
[25] = tested on: MDA-MB-435
[26] = tested on: MDA-N
[27] = tested on: MOLT-4
[28] = tested on: Malme-3M
[29] = tested on: NCI-H226
[30] = tested on: NCI-H23
[31] = tested on: NCI-H460
[32] = tested on: NCI/ADR-RES
[33] = tested on: OVCAR-3
[34] = tested on: OVCAR-5
[35] = tested on: OVCAR-8
[36] = tested on: PC-3
[37] = tested on: RXF 393
[38] = tested on: SF-268
[39] = tested on: SF-295
[40] = tested on: SF-539
[41] = tested on: SK-MEL-2
[42] = tested on: SK-MEL-5
[43] = tested on: SK-OV-3
[44] = tested on: SN12C
[45] = tested on: SNB-19
[46] = tested on: SNB-75
[47] = tested on: SW-620
[48] = tested on: T47D
[49] = tested on: TK-10
[50] = tested on: U-251
[51] = tested on: UACC-257
[52] = tested on: UACC-62
[53] = tested on: UO-31

With `Cn1c(COC(=O)NC2CCCCC2)c(COC(=O)NC2CCCCC2)c2ccc3cc(C=O)ccc3c21` the GI50 [1] was 83.6 µM (inactive), the GI50 [2] was > 100 µM (inactive) and the GI50 [3] was > 100 µM (inactive). The GI50 [4] was > 100 µM (inactive), the GI50 [5] was > 100 µM (inactive) and the GI50 [6] was > 100 µM (inactive). The GI50 [7] was > 100 µM (inactive), the GI50 [8] was > 100 µM (inactive) and the GI50 [9] was > 100 µM (inactive). The GI50 [10] was > 100 µM (inactive), the GI50 [11] was > 100 µM (inactive) and the GI50 [12] was > 100 µM (inactive). For the same molecule, the GI50 [13] was greater than 100 µM, the GI50 [14] was 38.1 µM (inactive) and the GI50 [15] was 32 µM (inactive). The GI50 [16] was > 100 µM (inactive), the GI50 [17] was 35.3 µM (inactive) and the GI50 [18] was > 100 µM (inactive). For the same molecule, the GI50 [19] was > 100 µM (inactive), the GI50 [20] was > 100 µM (inactive) and the GI50 [21] was > 100 µM (inactive). The GI50 [22] was > 100 µM (inactive), the GI50 [23] was > 100 µM (inactive) and the GI50 [24] was 85.1 µM (inactive). The GI50 [25] was 45.7 µM (inactive), the GI50 [26] was > 100 µM (inactive) and the GI50 [27] was > 100 µM (inactive). The GI50 [28] was > 100 µM (inactive), the GI50 [29] was > 100 µM (inactive) and the GI50 [30] was > 100 µM (inactive). For the same molecule, the GI50 [31] was > 10 µM (inactive), the GI50 [32] was > 100 µM (inactive) and the GI50 [33] was > 100 µM (inactive). The GI50 [34] was > 100 µM (inactive), the GI50 [35] was > 100 µM (inactive) and the GI50 [36] was > 100 µM (inactive). The GI50 [37] was 51.1 µM (inactive), the GI50 [38] was 37.5 µM (inactive) and the GI50 [39] was > 100 µM (inactive). For the same molecule, the GI50 [40] was > 100 µM (inactive), the GI50 [41] was > 100 µM (inactive) and the GI50 [42] was > 100 µM (inactive). The GI50 [43] was > 100 µM (inactive), the GI50 [44] was > 100 µM (inactive) and the GI50 [45] was > 100 µM (inactive). For the same molecule, the GI50 [46] was 18.6 µM (inactive), the GI50 [47] was > 100 µM (inactive) and the GI50 [48] was > 100 µM (inactive). For the same molecule, the GI50 [49] was > 100 µM (inactive), the GI50 [50] was 27.9 µM (inactive) and the GI50 [51] was > 100 µM (inactive). The GI50 [52] was > 100 µM (inactive) and the GI50 [53] was > 100 µM (inactive).
